Measurements from the SangsterLogP compilation.

How the values were obtained:
[1] = method code SF-HPLC, from DOI: 10.1002/jps.2600830309, PMID: 8207673; conditions: pH 7.5

Row | logD (pH 7.5) | SMILES | other results
1 | – | CCOc1ccc(I)c(O)c1C(=O)NC[C@@H]1CCCN1CC | logD [1]: 2.84
2 | – | CCOc1c(OC)cc(I)c(O)c1C(=O)NC[C@@H]1CCCN1CC | logD (pH 7.4): 2.52
3 | 3.22 | COc1cc(Br)cc(C(=O)NC[C@@H]2CCCN2CCF)c1OC | –
4 | 4.71 | CCc1cc(Cl)c(O)c(C(=O)NC[C@@H]2CCCN2CCF)c1OC | –
